For one assay, the system named is IL-18. Kind of assay: IL-18 in brain homogenates by ELISA after MPTP. It counts as in vivo, mice. The procedure: Mice were treated with dapansutrile or saline and injected with MPTP as described in Example 2.
At three days after MPTP, mice were sacrificed and levels of IL-18 in the brain were measured. Briefly, the brain was removed from the mouse and a piece of the striatum was homogenized. Levels of proteins were normalized to 2 mg/ml and IL-18 was measured using the mouse IL-18 ELISA from R and D Systems.
(§1) It has been reported that administration of MPTP induces the assembly of NLPR3 inflammasome in the brain. Mice were sacrificed after anesthesia by cervical dislocation at 4 and 7 days after MPTP administration. Brains were collected, and the striatum (St) and ventral midbrain (VM) areas of both hemispheres were excised and frozen in liquid nitrogen. Samples were homogenized in RIPA buffer (Thermo Fisher, Waltham, MA) supplemented with protease inhibitor (Thermo Fisher) using a TissueRuptor (Qiagen, Germantown, MD). Protein concentration was determined using a BCA Protein Assay Kit (Thermo Fisher) according to manufacturer's instructions. Samples were diluted to 2 mg/ml in the same extraction buffer.
(§2) Levels of IL-1β, IL-18, IL-6, and IL-17A from brain homogenates were measured by ELISA DuoSet kit (R&D Systems, Minneapolis, MN). ELISA kit for IL-1β detects 92-95% of the 17 kDa form and only 8-5% of the precursor form of this cytokine. 96-well plates (ThermoFisher Scientific) were coated with capture antibody. Samples were incubated for two hours at room temperature. Detection antibodies and streptavidin-HRP were added. TMB ELISA (cBioscience, San Diego, CA) was used as substrate solution. Results were measured in a microplate reader (Bio-Tek, Santa Clara, CA). Final values were normalized by the protein concentration of each sample. 4-5 mice per group were used for each cytokine.
For orientation: An ELISA detects its analyte on a solid surface through an enzyme-linked reagent.

Another assay relates to IL-1β. Kind of assay: IL-1β in brain homogenates by ELISA after MPTP. Type of assay: in vivo, mice. To be noted: 200 mg/kg once each day; 4 days after MPTP-acute.
Excerpt: as §1, §2

Assay [1] has as its system white blood cells, lymphocytes, monocytes, and granulocytes. Kind of assay: peripheral blood cell counts after MPTP-acute administration. Type of assay: in vivo, mice. To be noted: 200 mg/kg, day seven after MPTP-acute. The procedure:
(§3) Seven days after MPTP-acute administration, peripheral blood and spleen were isolated from each mouse, and hematological changes in the peripheral blood and cytokine production in the spleen were evaluated. […] White blood cells, lymphocytes, monocytes, and granulocytes were measured from the peripheral blood using a HemaTrue cell counter (Heska, Loveland, CO). Spleens were isolated and mechanically passed through a 70 μm cell strainer (ThermoFisher) in PBS. Cells were plated in a 96-well plate at a concentration of 200,000 cells/well in RPMI medium (Coring, New York, NY) with 10% FBS. After that, cells were stimulated with LPS at 1 μg/ml and 5 μg/ml. RPMI medium was used as control. After 72 hours, supernatant was isolated to measure the levels of IL-6. Cells were lysed with RIPA buffer (ThermoFisher) supplemented with protease inhibitor (ThermoFisher) to measure IL-1α levels. In both cases, 5-6 mice per group were used.

For the next assay, the system named is IL-6. Kind of assay: IL-6 in LPS-stimulated cultured splenocytes from MPTP-injected mice. It counts as in vivo. To be noted: mice treated 200 mg/kg for seven days; splenocytes cultured with LPS, supernatant. The procedure: as §3
The next assay relates to dopaminergic neurons. Kind of assay: tyrosine hydroxylase (TH) immunostaining of the nigrostriatal pathway after MPTP. Type of assay: in vivo, mice. The note with it: 200 mg/kg for 7 days; seven days after MPTP-acute. The procedure: To evaluate the effect of dapansutrile on dopaminergic neurons, mice were subjected to MPTP acute administration. Seven days after, when the levels of dopaminergic neurons are lower, the nigrostriatal pathway was evaluated by tyrosine hydroxylase (TH) immunostaining to assess the viability of dopaminergic neurons. Mice were perfused with 4% paraformaldehyde (Sigma-Aldrich) in PBS. Brains were removed and immersed in the same perfusion buffer overnight and then cryoprotected with 30% sucrose in 0.1M PBS at 4° C. After dehydration, samples were embedded in paraffin molds for sectioning. Coronal brain sections (4 μm thick) containing the St and SNpc were obtained and transferred to glass microscope slides. After antigen retrieval, slides were incubated with primary anti-TH antibody (1:2000, Abcam, Cambridge, UK) for 30 minutes at room temperature. TH antibody binding was detected using an anti-rabbit HRP-conjugated secondary polymer, followed by chromogenic visualization with diaminobenzidine (DAB, Cell Signaling). Hematoxylin counterstain was used to visualize nuclei. Processing of the samples was performed by Inotiv Boulder (Boulder, CO). Dopaminergic immunoreactivity in the St was calculated by measuring the integrated density by NIH ImageJ software. Stereological counting in the SNpc was performed by manual quantification of TH-positive neurons. Three sections per mice were used. Five mice were used for the sham+saline group, and seven mice were used for the MPTP group.

Where [2] appears, read: 200 mg/kg once each day, four days after MPTP-acute.

These results are taken from patent US20240269104A1, “METHOD FOR TREATING PARKINSON'S DISEASE” (Olatec Therapeutics, Inc., priority 2021, published 2024).

In the case of `CS(=O)(=O)CCC#N` [dapansutrile, 3-methanesulfonylpropionitrile], in the assay on IL-18 (setting [2]), the “levels of IL-18 in the ventral midbrain (VM)” value is “no changes associated to dapansutrile” and the “reduction in the levels of IL-18 in the striatum (St) versus MPTP mice treated with saline” value came out at 15%. The “levels of IL-18 in the brain in comparison with mice treated with water” value in the assay with IL-18 (200 mg/kg oral gavage, striatum, three days after MPTP) is “reduced the levels of IL-18 in the brain”. In addition, in the assay on IL-1β, the “levels of IL-1β in the ventral midbrain (VM)” value is reported as “no changes associated to dapansutrile” and the “reduction of levels of IL-1β in the striatum (St)” value amounted to 24%. Moreover, in assay [1], the “increase in number of circulating granulocytes” value was 33% and the “increase in number of circulating lymphocytes” value stood at 24%. The “IL-6 production by splenocytes” value with IL-6 is on record as “restoring the effects of MPTP”. In the assay with dopaminergic neurons, the “TH-positive fibers and neurons versus control mice” value is given as “no significant changes against control mice were observed”; the “density of TH-positive fibers in the striatum versus MPTP mice treated with saline” value is given as “increase”; the “increase of TH-positive neurons in the SNpc” value is on record as 3 times.
